Results reported in patent US20080119548A1, “Control Of Feeding Behavior By Changing Neuronal Energy Balance” (priority 2004, published 2008).

How the values were obtained:
[1] = test system: BALB/c male mice; test: Measurement of food intake after i.c.v. or i.p. injection; type: in vivo
Protocol: Male BALB/c mice (7-9 weeks) were purchased from Charles River Laboratories (and housed in a controlled-light (12 hr light/12 hr dark cycle) environment (lights on 0200-1400 h) and allowed ad libitum access to standard laboratory chow and water. For fasting, food was withdrawn from cage at the onset of the dark cycle for 24 hr, but ad libitum access to water was allowed.
Mice were implanted with permanent stainless steel cannulae into the lateral ventricle of the brain 0.6 mm caudal to Bregma, 1.2 mm lateral to the midline, and sunk to a depth of 2.2 mm below the surface of the skull. Implanted mice were housed in individual cages and utilized for i.c.v. and i.p. injections as indicated. C75 dissolved in RPMI1640 (Gibco-BRL), AICAR (Toronto Research Chemicals Inc) or compound C (46) (FASgen, Inc.) in saline was injected i.c.v., such that desired dose could be administered in a volume of 2.5 μl, while control groups received vehicle only. Injections were done immediately preceding dark onset and food intake measurements were taken at 1 hr (0-1 hr interval), 3 hr (1-3 hr interval), and 24 hr (3-24 hr interval) after dark onset. C75 i.p./AICAR i.c.v. treatment groups were i.p. injected with 5 mg/kg bodyweight C75 dissolved in […] of glucose-free RPMI 1 hr before the dark onset, followed by 3 μg/2.5 μl saline i.c.v. AICAR immediately preceding the dark onset. Control groups received 200 μl of glucose free RPMI 1 hr before lights off and 2.5 μl of saline. Administration of i.p. compound C (10 or 30 mg/kg bodyweight) or C75 (10 mg/kg bodyweight) was followed by food intake measurement at the same times indicated.

[2] = test system: primary cortical neurons; test: ATP, AMP/ATP ratio and AMPK activity in primary cortical neurons; type: cell-based, Sprague-Dawley rats; settings: C75 treatment
Protocol: Cortices were removed from E17 Sprague-Dawley rats (Harlan, Indianapolis, Ind.), and were dissociated by mild trypsinization and trituration as described by Dawson, et al. J Neurosci 13, 2651-2661 (1993). Cells were plated on poly-D-lysine coated plastic Nunclon culture dishes at a density of 5×10^5 cells/cm^2 in Minimum Essential Media (MEM) supplemented with horse serum, fetal bovine serum, glutamine, and the antibiotics gentamycin and kanamycin. […]
Neurons were lysed on ice using TE buffer (100 mM Tris and 4 mM EDTA) and removed from the plate. ATP levels were then measured in the linear range using the ATP Bioluminescence Kit CLS II (Roche, Indianapolis, Ind.) by following the manufacturer's protocol, and results were read by a Perkin-Elmer Victor^2 1420.
Adenine nucleotide levels in primary cortical neuron lysates were determined by HPLC analysis as described by Stocchi, et al. Anal Biochem 167, 181-190 (1987). […]
AMPK activity was determined by performing SAMS peptide assays as described by Witters, et al., J Biol Chem 267, 2864-2867 (1992). […] Immunoprecipitates were then washed and resuspended in 4× assay buffer and kinase activity was assessed by measurement (for 20 min at 30° C.) of the incorporation of ^32P into the synthetic SAMS peptide substrate, HMRSAMSGLHLVKRR, (Princeton Biomolecules). […]

[3] = test system: pCREB; test: Immunohistochemistry of pCREB in the arcuate nucleus; type: in vivo, mice; settings: C75-treated (24 hr) mice
Protocol: Free-floating sections were blocked in PBS containing 5% goat serum, 0.1% BSA, 0.05% Triton-X100, 1 mM NaF for 1 hr at room temperature and incubated with anti-phospho-AMPKα (α1 and α2) antibody (1:100) or anti-phospho-CREB antibody (1:500, Cell Signaling) in PBS containing 1% goat serum, 0.1% BSA, 0.05% Triton-X100, 1 mM NaF overnight at 4° C. Signal was visualized by Vectastain ABC kit (Vector). Images of in situ hybridization and immunohistochemistry were visualized using an Axiocam HRc digital camera (Carl Zeiss) and images were acquired using Improvision Openlab software, and quantified by NIH Image program (Macro).

`C=C1C(=O)OC(CCCCCCCC)C1C(=O)O` (centres unmarked) [C75] was tested. Which “reduction in food intake over 24 hr” value ([1]; C75 5 mg i.c.v., p<0.05) did it give?
The value was 20.3%.

And the “food intake at 1 hr, % of control (RPMI/saline)” value ([1]; C75 5 mg/kg bodyweight i.p. 1 hr before dark onset, saline i.c.v., p<0.01)?
The value was 37.5 % of control.

And the “reduction in food intake over 24 hr” value ([1]; C75 10 mg i.c.v., p<0.01)?
Its value is 37.7%.

What about the “food intake, % of control” value ([1]; C75 10 mg/kg bodyweight i.p., 0-1 hr) of the same molecule?
Its value is 8.3 % of control.

What about the “food intake, % of control” value ([1]; C75 10 mg/kg bodyweight i.p., 1-3 hr) of the same molecule?
The value was 23.3 % of control.

And the “food intake, % of control” value ([1]; C75 10 mg/kg bodyweight i.p., 3-24 hr)?
The value was 30.1 % of control.

And the “total 24 hr-food consumption, % of control” value ([1]; C75 10 mg/kg bodyweight i.p., total 24 hr, p<0.001)?
Its value is 26.3 % of control.

What about the “food intake during the 1-3 and 3-24 hr time intervals” value ([1]; C75 i.c.v., dose-dependent) of the same molecule?
The value was “significantly reduced food intake”.

What about the “AMPK activity in primary cortical neurons” value [2] of the same molecule?
The value was “inactivation of AMPK”.

What about the “ratio of AMP/ATP in primary cortical neurons” value [2] of the same molecule?
Its value is “decrease in the ratio of AMP/ATP”.

And the “level of pCREB in the arcuate nucleus, % of control” value [3]?
The value was 39 % of control.
